Results taken from paper PMC5485657 (The Journal of Venomous Animals and Toxins Including …, 2017).
Ends that are not written are not given here.

Legend:
BK-induced rat paw edema = assay: Bradykinin-potentiating activity in vivo (rat paw edema); design: species or system Male Wistar rats; conditions: intraplantar BK 40 ng/mL (2 ng in 50 μL saline)
Experimental: Male Wistar (200 g-250 g) rats, bred at the Nuclear and Energy Research Institute (IPEN), São Paulo, SP, Brazil were used for the in vivo assays. The animals had access to food and water ad libitum, and were kept under a 12 h-light/dark cycle. Procedures involving animals and their care were in accordance with the guidelines for the use of animals on biomedical research and were approved by the Animal Ethics Committee (protocol 171/16) of IPEN.
Edema was induced by intraplantar injection of 2 ng of BK diluted in 50 μL saline into the left hind paw, which was measured every 5 min for 40 min by a plethysmograph (H. Basile, Italy). The right paw was injected with 50 μL […] saline (NaCl 0.9% w/v). In parallel, a group was injected with the synthetic potentiating peptide (40 ng/mL) in the left paw 10 min before the injection of BK, in order to evaluate the potentiation of BK. In both cases, the volume of the right paw was subtracted from that of volume of the left paw, to give net edema, expressed in μL.
One-way analysis of variance (ANOVA) was performed. The significance level was considered as p < 0.05.

paw edema = tested on: paw edema; design: method as in PMID 15688321; conditions: previous study, similar approach; cited from earlier work

| Substance | time at which induced edema was detectable (BK-induced rat paw edema; plethysmograph) [min] | time course of edema (in words) (BK-induced rat paw edema; plethysmograph every 5 min for 40 min) | paw edema (in words) (paw edema) |
| --- | --- | --- | --- |
| Bradykinin (RPPGFSPFR; also: acetate salt; UniProt P01042 381-389, looked up) [BK] | 5 | declined at a constant rate over the next 40 min | – |
| QWAQWPRPQIPP [BPP9a, B. jararaca BPP9a] | – | – | intense and fast paw edema |
